Data: ChEMBL document CHEMBL5291721, “A preclinical secondary pharmacology resource illuminates target-adverse drug reaction associations of marketed drugs” (Nat Commun, 2023)

Legend:
[1] = molecular target: T1, Adenosine receptor A3 (Homo sapiens, UniProt P0DMS8)
T1 sequence (P0DMS8 whole entry): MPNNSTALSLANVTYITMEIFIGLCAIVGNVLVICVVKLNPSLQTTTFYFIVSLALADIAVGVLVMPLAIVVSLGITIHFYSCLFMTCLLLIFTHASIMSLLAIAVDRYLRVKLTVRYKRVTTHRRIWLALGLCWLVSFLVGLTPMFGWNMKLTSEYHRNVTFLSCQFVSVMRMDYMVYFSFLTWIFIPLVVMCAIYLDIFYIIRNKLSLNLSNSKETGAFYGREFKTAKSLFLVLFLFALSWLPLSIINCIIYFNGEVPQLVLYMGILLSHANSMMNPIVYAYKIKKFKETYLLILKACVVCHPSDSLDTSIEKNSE

[2] = molecular target: T2, Type-1 angiotensin II receptor (Homo sapiens, UniProt P30556)
T2 sequence (P30556 whole entry): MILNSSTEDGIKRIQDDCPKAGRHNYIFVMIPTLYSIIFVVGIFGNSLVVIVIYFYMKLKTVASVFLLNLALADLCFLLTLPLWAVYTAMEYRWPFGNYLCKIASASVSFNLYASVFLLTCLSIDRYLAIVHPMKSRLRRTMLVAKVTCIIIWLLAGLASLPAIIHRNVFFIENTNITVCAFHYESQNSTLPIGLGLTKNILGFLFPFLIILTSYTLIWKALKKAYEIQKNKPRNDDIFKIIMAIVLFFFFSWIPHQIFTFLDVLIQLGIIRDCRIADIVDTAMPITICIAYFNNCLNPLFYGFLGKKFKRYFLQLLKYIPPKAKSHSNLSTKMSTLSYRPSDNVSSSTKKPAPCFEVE

[3] = molecular target: Adenosine receptor A2a (Homo sapiens, UniProt P29274)
[4] = molecular target: Sodium-dependent dopamine transporter (Homo sapiens, UniProt Q01959)
[5] = molecular target: T3, Cholecystokinin receptor type A (Homo sapiens, UniProt P32238)
T3 sequence (P32238 whole entry): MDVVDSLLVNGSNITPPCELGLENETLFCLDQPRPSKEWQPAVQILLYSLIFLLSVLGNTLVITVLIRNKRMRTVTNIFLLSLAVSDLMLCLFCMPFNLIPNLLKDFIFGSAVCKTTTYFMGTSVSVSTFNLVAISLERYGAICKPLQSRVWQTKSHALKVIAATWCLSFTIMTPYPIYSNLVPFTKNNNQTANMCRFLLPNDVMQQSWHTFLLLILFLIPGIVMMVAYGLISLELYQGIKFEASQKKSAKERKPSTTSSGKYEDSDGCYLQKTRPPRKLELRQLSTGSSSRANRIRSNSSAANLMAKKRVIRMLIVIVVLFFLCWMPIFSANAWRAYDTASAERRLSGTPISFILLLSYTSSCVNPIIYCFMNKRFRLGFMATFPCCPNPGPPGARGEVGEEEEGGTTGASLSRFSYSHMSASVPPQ

[6] = molecular target: T4, Neuropeptide Y receptor type 1 (Homo sapiens, UniProt P25929)
T4 sequence (P25929 whole entry): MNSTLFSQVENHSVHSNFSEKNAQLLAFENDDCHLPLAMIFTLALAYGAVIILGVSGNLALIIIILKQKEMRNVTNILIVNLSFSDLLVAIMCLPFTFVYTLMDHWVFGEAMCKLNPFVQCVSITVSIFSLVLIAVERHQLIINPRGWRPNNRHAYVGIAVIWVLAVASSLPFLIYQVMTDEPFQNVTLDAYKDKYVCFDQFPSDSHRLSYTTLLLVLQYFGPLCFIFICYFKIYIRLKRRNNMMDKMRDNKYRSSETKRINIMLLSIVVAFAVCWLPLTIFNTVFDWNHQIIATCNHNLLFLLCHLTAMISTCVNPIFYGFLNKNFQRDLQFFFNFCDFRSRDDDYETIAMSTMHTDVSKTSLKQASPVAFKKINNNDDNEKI

[7] = molecular target: D(3) dopamine receptor (Homo sapiens, UniProt P35462)
[8] = molecular target: 3',5'-cyclic-AMP phosphodiesterase 4D (Homo sapiens, UniProt Q08499); format: functional
[9] = molecular target: T5, Alpha-2A adrenergic receptor (Homo sapiens, UniProt P08913); format: functional, cell-based
T5 sequence (P08913 whole entry): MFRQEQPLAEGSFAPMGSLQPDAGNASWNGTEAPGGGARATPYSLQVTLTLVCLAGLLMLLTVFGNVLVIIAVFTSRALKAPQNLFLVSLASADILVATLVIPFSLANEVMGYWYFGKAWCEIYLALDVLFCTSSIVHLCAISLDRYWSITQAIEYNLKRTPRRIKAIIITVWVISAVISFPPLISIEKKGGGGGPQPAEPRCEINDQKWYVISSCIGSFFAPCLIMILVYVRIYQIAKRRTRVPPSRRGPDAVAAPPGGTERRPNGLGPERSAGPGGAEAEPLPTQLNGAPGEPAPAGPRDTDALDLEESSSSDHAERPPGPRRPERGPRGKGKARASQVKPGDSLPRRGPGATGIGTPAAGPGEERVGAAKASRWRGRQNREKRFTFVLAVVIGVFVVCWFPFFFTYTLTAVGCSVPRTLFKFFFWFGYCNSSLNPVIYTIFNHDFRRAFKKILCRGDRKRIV

[10] = molecular target: T6, Endothelin-1 receptor (Homo sapiens, UniProt P25101)
T6 sequence (P25101 whole entry): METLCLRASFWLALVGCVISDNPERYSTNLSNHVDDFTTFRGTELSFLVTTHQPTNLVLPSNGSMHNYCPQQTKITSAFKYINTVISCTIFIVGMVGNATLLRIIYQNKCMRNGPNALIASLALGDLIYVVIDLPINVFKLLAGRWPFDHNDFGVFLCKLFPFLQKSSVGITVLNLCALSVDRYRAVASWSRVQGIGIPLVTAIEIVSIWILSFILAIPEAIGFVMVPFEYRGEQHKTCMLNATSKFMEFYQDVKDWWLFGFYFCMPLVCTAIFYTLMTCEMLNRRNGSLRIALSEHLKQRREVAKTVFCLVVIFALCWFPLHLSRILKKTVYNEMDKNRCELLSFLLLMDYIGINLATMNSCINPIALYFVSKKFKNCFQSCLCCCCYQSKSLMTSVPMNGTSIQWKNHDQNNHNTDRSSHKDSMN
Further: assay procedure not described here.

Adenosine receptor A2a, sequence (P29274 whole entry): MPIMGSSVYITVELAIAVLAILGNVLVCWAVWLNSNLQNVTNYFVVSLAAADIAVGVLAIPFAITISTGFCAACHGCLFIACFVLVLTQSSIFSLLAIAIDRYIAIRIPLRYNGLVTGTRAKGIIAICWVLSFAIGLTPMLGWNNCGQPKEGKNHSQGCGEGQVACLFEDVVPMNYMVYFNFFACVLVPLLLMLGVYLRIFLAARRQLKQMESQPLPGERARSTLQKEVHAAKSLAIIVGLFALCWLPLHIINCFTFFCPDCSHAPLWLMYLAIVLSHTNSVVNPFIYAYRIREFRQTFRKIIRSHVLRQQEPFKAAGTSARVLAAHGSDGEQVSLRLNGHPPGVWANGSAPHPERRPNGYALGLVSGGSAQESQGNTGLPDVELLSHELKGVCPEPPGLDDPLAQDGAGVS
3',5'-cyclic-AMP phosphodiesterase 4D, sequence (Q08499 whole entry): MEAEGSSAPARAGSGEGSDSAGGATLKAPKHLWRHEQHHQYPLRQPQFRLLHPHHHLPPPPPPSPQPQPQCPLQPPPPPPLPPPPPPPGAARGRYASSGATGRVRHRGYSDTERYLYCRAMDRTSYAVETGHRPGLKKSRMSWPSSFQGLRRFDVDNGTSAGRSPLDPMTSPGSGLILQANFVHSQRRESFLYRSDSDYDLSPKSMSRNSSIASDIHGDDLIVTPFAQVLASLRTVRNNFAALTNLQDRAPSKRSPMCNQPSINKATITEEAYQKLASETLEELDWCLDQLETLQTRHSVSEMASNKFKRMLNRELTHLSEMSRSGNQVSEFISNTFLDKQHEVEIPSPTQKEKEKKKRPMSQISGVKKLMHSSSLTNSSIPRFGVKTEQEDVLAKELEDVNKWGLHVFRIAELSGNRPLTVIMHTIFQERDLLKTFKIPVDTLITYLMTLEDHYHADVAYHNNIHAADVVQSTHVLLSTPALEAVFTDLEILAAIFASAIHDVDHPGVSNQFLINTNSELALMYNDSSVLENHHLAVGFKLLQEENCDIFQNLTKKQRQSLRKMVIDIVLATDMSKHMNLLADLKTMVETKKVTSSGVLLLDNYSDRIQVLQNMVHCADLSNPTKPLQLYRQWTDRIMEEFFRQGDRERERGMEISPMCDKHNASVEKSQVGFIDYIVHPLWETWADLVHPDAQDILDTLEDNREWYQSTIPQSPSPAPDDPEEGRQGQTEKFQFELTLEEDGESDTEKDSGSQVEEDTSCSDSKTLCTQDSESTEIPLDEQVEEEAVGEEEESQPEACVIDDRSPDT
Sodium-dependent dopamine transporter, sequence (Q01959 whole entry): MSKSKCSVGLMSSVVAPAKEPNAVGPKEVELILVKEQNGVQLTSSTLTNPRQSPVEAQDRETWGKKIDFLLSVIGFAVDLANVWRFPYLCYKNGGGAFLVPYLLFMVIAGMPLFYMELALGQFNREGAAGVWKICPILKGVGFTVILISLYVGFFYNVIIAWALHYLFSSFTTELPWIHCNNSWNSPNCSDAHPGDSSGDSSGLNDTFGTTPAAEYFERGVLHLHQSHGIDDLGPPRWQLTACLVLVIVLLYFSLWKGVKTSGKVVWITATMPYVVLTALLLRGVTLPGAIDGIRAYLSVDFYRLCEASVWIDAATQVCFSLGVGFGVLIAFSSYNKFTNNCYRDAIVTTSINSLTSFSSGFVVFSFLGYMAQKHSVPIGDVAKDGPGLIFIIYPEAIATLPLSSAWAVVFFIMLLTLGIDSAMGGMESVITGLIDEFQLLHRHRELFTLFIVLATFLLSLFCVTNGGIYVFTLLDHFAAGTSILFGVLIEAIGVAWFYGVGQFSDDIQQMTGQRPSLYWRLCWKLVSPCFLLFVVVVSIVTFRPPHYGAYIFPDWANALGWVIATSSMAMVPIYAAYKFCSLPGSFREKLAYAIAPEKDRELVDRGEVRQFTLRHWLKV
D(3) dopamine receptor, sequence (P35462 whole entry): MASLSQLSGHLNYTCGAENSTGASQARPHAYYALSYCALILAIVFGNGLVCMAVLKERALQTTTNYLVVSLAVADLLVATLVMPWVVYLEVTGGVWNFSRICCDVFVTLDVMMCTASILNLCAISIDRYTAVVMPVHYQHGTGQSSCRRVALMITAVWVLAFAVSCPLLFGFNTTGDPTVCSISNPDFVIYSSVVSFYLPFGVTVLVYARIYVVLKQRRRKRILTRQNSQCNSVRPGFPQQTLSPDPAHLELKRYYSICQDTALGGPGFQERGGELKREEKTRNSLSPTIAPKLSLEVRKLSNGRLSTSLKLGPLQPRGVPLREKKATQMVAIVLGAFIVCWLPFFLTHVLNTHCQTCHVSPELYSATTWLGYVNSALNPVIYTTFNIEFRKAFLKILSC

AC50 [2] | AC50 [3] | AC50 [4] | AC50 [5] | AC50 [6] | AC50 [7] | AC50 [8] | AC50 [9] | AC50 [10] | SMILES | AC50 [1]
– | – | – | – | – | – | – | – | – | C[N+](C)(CCCCCC[N+](C)(C)C1c2ccccc2-c2ccccc21)C1c2ccccc2-c2ccccc21 [HEXAFLUORENIUM] | > 30 µM
– | – | – | – | – | – | – | – | – | CCCCc1oc2ccc(NS(C)(=O)=O)cc2c1C(=O)c1ccc(OCCCN(CCCC)CCCC)cc1 [DRONEDARONE] | 1.54 µM
– | – | – | – | – | – | – | – | – | CC(C(=O)O)c1cccc(Oc2ccccc2)c1 (centres undefined) [FENOPROFEN] | > 30 µM
– | – | – | – | – | – | – | – | – | CC(C)C(=O)Oc1ccc(CO)cc1[C@H](CCN(C(C)C)C(C)C)c1ccccc1 [FESOTERODINE] | > 30 µM
> 30 µM | > 30 µM | > 30 µM | > 30 µM | > 30 µM | 4.3 µM | > 30 µM | > 30 µM | > 30 µM | CCCCCCCN(CC)CCCC(O)c1ccc(NS(C)(=O)=O)cc1 (centres undefined) [IBUTILIDE] | –
– | – | – | – | – | – | – | – | – | C[C@H]1CN(C[C@H](Cc2ccccc2)C(=O)NCC(=O)O)CC[C@@]1(C)c1cccc(O)c1 [ALVIMOPAN] | > 30 µM
– | – | – | – | – | – | – | – | – | CCNC(=O)/C=C(C)/C=C/C=C(C)/C=C/c1c(C)cc(OC)c(C)c1C [MOTRETINIDE] | 2.24 µM
– | – | – | – | – | – | – | – | – | Cc1ccccc1C(=O)Nc1ccc(C(=O)N2CCCC(O)c3cc(Cl)ccc32)c(C)c1 (centres undefined) [TOLVAPTAN] | 11 µM
> 30 µM | > 30 µM | > 30 µM | > 30 µM | > 10 µM | > 30 µM | > 30 µM | > 30 µM | > 30 µM | CCC(=O)O[C@]1(C(=O)CCl)[C@@H](C)C[C@H]2[C@@H]3CCC4=CC(=O)C=C[C@]4(C)[C@@]3(F)[C@@H](O)C[C@@]21C [CLOBETASOL PROPIONATE] | –
– | – | – | – | – | – | – | – | – | CCCCC1C(=O)N(c2ccccc2)N(c2ccc(O)cc2)C1=O (centres undefined) [OXYPHENBUTAZONE ANHYDROUS] | > 30 µM
> 30 µM | > 30 µM | > 30 µM | > 30 µM | > 30 µM | > 30 µM | > 30 µM | > 30 µM | > 30 µM | CC1(C)S[C@@H]2[C@H](NC(=O)C(C(=O)O)c3ccccc3)C(=O)N2[C@H]1C(=O)O (some centres undefined) [CARBENICILLIN] | –
> 30 µM | > 30 µM | > 30 µM | > 30 µM | > 30 µM | > 30 µM | > 30 µM | > 30 µM | > 30 µM | Cn1cc(C(=O)[C@@H]2CCc3nc[nH]c3C2)c2ccccc21 [RAMOSETRON] | –
0.0005 µM | > 30 µM | > 30 µM | > 30 µM | > 10 µM | > 30 µM | > 30 µM | > 30 µM | > 30 µM | CCOc1nc2cccc(C(=O)O)c2n1Cc1ccc(-c2ccccc2-c2nnn[nH]2)cc1 | –
> 30 µM | > 30 µM | 25.3 µM | 10.2 µM | > 30 µM | > 30 µM | 28 µM | > 30 µM | > 30 µM | Cc1nc(Nc2ncc(C(=O)Nc3c(C)cccc3Cl)s2)cc(N2CCN(CCO)CC2)n1 [DASATINIB] | –
> 30 µM | > 30 µM | > 30 µM | > 30 µM | > 30 µM | > 30 µM | > 30 µM | > 10 µM | > 30 µM | CCCNC(=O)NS(=O)(=O)c1ccc(Cl)cc1 [CHLORPROPAMIDE] | –
39.8 µM | > 30 µM | > 10 µM | > 30 µM | > 30 µM | > 10 µM | > 30 µM | > 10 µM | > 30 µM | CC[C@H](C)C(=O)O[C@H]1C[C@@H](C)C=C2C=C[C@H](C)[C@H](CC[C@@H]3C[C@@H](O)CC(=O)O3)[C@H]21 [LOVASTATIN] | –
> 30 µM | > 30 µM | > 30 µM | > 30 µM | > 30 µM | > 30 µM | > 30 µM | > 30 µM | > 30 µM | CC(=O)Nc1ccc(CC(=O)O)cc1 [ACTARIT] | –
